Measured values reported in patent US7893199B2, “Peptides having neutrophil-stimulating activity” (National University Corporation Gunma University, priority 2006, dated 2011).
Where a SMILES comes first, the peptide text is derived from it. Where no end group is shown, it is not given here.

Tested on: HL-60 cells differentiated into the neutrophil-like cells
Assay: β-hexosaminidase-secreting activity of neutrophil-like differentiated HL-60 cells
Format: cell-based, human
Conditions: neutrophil-like differentiated HL-60 cells; for Activity (β-hexosaminidase-secreting activity class): lowest concentration class at which secretion was confirmed; for EC50: Table 1, read-out: EC50 (μM), β-hexosaminidase-secreting activity
Text: (1) Culture of Cell and Differentiation Into Neutrophil-like Cell
In this time, the cells were subcultured at a cell density of 1.0×10^5 cells/ml to 1.5×10^6 cells/ml, the number of cells was counted using a microscope, and the state of the cells was also confirmed.
The HL-60 cells were differentiated into neutrophil-like cells by setting the cell density in the flask to about 1.0×10^6 cells/ml, adding dibutylyl-cAMP (db-cAMP) as a differentiation-inducing agent so as to have a final concentration of 500 μM, and incubating the cells in the presence of CO2 at 37° C. for 3 days.
(2) Stimulation of Cell and Measurement of β-Hexosaminidase-secreting Activity
The cells were collected by centrifuging the suspension of the differentiated HL-60 cells (1,000 rpm, 5 minutes, 4° C.). After that, the following operation was repeated three times to wash the cells: Hepes buffered Hank's solution (HBHS) containing ice-cooled 0.1% BSA (1.2 mM CaCl2.2H2O, 5.4 mM KCl, 0.44 mM KH2PO4, 0.49 mM MgCl2.6H2O, 0.41 mM MgSO4.7H2O, 136.9 mM NaCl, 0.34 mM Na2HPO4, 10 mM Hepes, 4.2 mM NaHCO3, 5.5 mM D-glucose, pH 7.4) was added to the cells; the mixture was suspended by inversion; and the mixture was centrifuged again (1,000 rpm, 5 minutes, 4° C.). Subsequently, HBHS was added so that the mixture has a cell density of 5.6×10^6 cells/ml and suspended. Then, DNase I and cytochalasin B were each added so as to have a final concentration of 5 μg/ml, and the cell suspension was dispensed in an amount of 90 μl (5×10^5 cells) on ice. […] After the cell stimulation for 10 minutes, 100 μl of an ice-cooled stop solution (25 mM Tris, 123 mM NaCl, 2.7 mM KCl, pH 7.4) were added, and immediately, the mixture was centrifuged (5,000 rpm, 1 minute, 4° C.). 200 μl of the obtained supernatant were transferred to a new tube.
The amount of β-hexosaminidase released in the supernatant of the reaction solution was measured by an enzyme reaction using p-nitrophenyl-N-acetyl-μ-D-glucosaminide as a substrate (Non-patent Document 12). That is, the supernatant of the reaction solution was dispensed in an amount of 90 μl to a 96-well plate. 60 μl of a substrate solution (10 mM p-nitrophenyl-N-acetyl-μ-D-glucosaminide, 40 mM citrate, 70 mM Na2HPO4, pH 4.5) were added to each well, followed by incubation at 37° C. for 1 hour. After the reaction, 100 μl of a stop solution (0.4 M glycine, pH 10.7) were added to each well and a color of the released p-nitrophenol was developed. The color development was measured with a plate reader at adsorption at 405 nm (reference: 492 nm). The all amount of β-hexosaminidase contained in the cells was quantified by treating the cells with Triton X-100 having a final concentration of 0.05%. In addition, the amount of β-hexosaminidase secreted by stimulation of 10 μM fMLP was also measured, and the ratio of the secretion amount by stimulation with each peptide to the above sectretion amount by stimulation with fMLP.

Compound	EC50 [µM]	Activity (β-hexosaminidase-secreting activity class)
002 (MASRLLRGAGTLAAQALRARGPSGAAAMR) [compound 002]	–	▴ (a peptide in which the β-hexosaminidase-secreting activity was confirmed at a concentration of 100 μM or less)
003 (MASRLLRGAGTLAAQALRAR) [compound 003]	–	▴ (a peptide in which the β-hexosaminidase-secreting activity was confirmed at a concentration of 100 μM or less)
005 (MASRLLRGAGTLAAQALR) [compound 005]	–	▴ (a peptide in which the β-hexosaminidase-secreting activity was confirmed at a concentration of 100 μM or less)
006 (MGGLWRPGWRCVPFCGWRWI) [compound 006]	–	▴ x
008 (MLGQSIRRFTTSVVR) [compound 008]	> 100	▴ (a peptide in which the β-hexosaminidase-secreting activity was confirmed at a concentration of 100 μM or less)
010 (MLGQSIRRFTTSVVRR) [compound 010]	> 40	● (a peptide in which the β-hexosaminidase-secreting activity was confirmed at a concentration of 10 μM or less)
017 (FTTFLTPAAYVLGNLKQFRRN) [compound 017]	> 40	▴ (a peptide in which the β-hexosaminidase-secreting activity was confirmed at a concentration of 100 μM or less)
021 (MAIQFRSLFPLALPGMLALLGWWWFFSRK) [compound 021]	–	● (a peptide in which the β-hexosaminidase-secreting activity was confirmed at a concentration of 10 μM or less)
029 (MAAPRAGRGAGWSLRAWRALGGIRWGRRPRL) [compound 029]	> 50	● (a peptide in which the β-hexosaminidase-secreting activity was confirmed at a concentration of 10 μM or less)
039 (MAASVVCRAATAGAQVLLRARRSPALLRTPALRS) [compound 039]	> 40	● (a peptide in which the β-hexosaminidase-secreting activity was confirmed at a concentration of 10 μM or less)
045 (MAAALLARASGPARRALCPRAWRQ) [compound 045]	> 30	● (a peptide in which the β-hexosaminidase-secreting activity was confirmed at a concentration of 10 μM or less)

More lines, main results first:

EC50 [µM]	Compound	Activity (β-hexosaminidase-secreting activity class)
> 30	013 (MALPLRPLTRGL) [compound 013]	● (a peptide in which the β-hexosaminidase-secreting activity was confirmed at a concentration of 10 μM or less)
> 20	016 (MPLLRGRCPARRHYRRLALLGLQPAPRFA) [compound 016]	● (a peptide in which the β-hexosaminidase-secreting activity was confirmed at a concentration of 10 μM or less)
> 30	027 (MQRAVSVVARLGFRLQAFPPALCRPLSC) [compound 027]	● (a peptide in which the β-hexosaminidase-secreting activity was confirmed at a concentration of 10 μM or less)
> 30	044 (MAAPAVSGLSRQVRCFSTSVVRPF) [compound 044]	● (a peptide in which the β-hexosaminidase-secreting activity was confirmed at a concentration of 10 μM or less)
> 5	046 (MLPAALLRRPGLGRLVRHARAY) [compound 046]	∘ (a peptide in which the β-hexosaminidase-secreting activity was confirmed at a concentration of 1 μM or less)
> 20	047 (MLSALARPVSAALRRSFSTSAQNN) [compound 047]	● (a peptide in which the β-hexosaminidase-secreting activity was confirmed at a concentration of 10 μM or less)
0.3	CC[C@H](C)[C@H](NC(=O)[C@H](CS)NC(=O)[C@H](CC(C)C)NC(=O)[C@H](CCC(N)=O)NC(=O)[C@@H]1CCCN1C(=O)[C@H](CO)NC(=O)[C@H](Cc1ccccc1)NC(=O)[C@H](Cc1c[nH]cn1)NC(=O)[C@H](C)NC(=O)[C@H](CCCNC(=N)N)NC(=O)[C@H](CC(C)C)NC(=O)[C@H](CS)NC(=O)[C@H](Cc1c[nH]cn1)NC(=O)[C@H](CCCNC(=N)N)NC(=O)CNC(=O)[C@@H](NC(=O)[C@H](Cc1c[nH]cn1)NC(=O)[C@H](CCCNC(=N)N)NC(=O)[C@H](CC(C)C)NC(=O)[C@H](CC(C)C)NC(=O)[C@H](CC(C)C)NC(=O)[C@H](C)NC(=O)[C@H](C)NC(=O)[C@@H](N)CCSC)C(C)C)C(=O)N[C@@H](CCCNC(=N)N)C(=O)N[C@@H](CC(N)=O)C(=O)N[C@@H](C)C(=O)N[C@H](C(=O)N1CCC[C@H]1C(=O)N[C@@H](CC(C)C)C(=O)O)C(C)C [compound 023] (H-MAALLLRHVGRHCLRAHFSPQLCIRNAVPL-OH; N-terminus and C-terminus assumed)	⊚ (a peptide in which the β-hexosaminidase-secreting activity was confirmed at a concentration of 300 nM or less)
1	CC[C@H](C)[C@H](NC(=O)[C@H](CC(C)C)NC(=O)[C@@H](N)CCSC)C(=O)N1CCC[C@H]1C(=O)N[C@@H](Cc1ccccc1)C(=O)N[C@@H](CO)C(=O)N[C@@H](CCSC)C(=O)N[C@@H](CCCCN)C(=O)N[C@@H](CC(N)=O)C(=O)N[C@@H](CS)C(=O)N[C@@H](Cc1ccccc1)C(=O)N[C@@H](CCC(N)=O)C(=O)N[C@@H](CC(C)C)C(=O)N[C@@H](CC(C)C)C(=O)N[C@@H](CS)C(=O)N[C@@H](CC(N)=O)C(=O)N[C@@H](CS)C(=O)N[C@@H](CCC(N)=O)C(=O)N[C@H](C(=O)N1CCC[C@H]1C(=O)N[C@@H](C)C(=O)N[C@@H](C)C(=O)NCC(=O)N[C@@H](Cc1ccccc1)C(=O)N[C@@H](CCCCN)C(=O)O)C(C)C [compound 030] (H-MLIPFSMKNCFQLLCNCQVPAAGFK-OH; N-terminus and C-terminus assumed)	∘ (a peptide in which the β-hexosaminidase-secreting activity was confirmed at a concentration of 1 μM or less)
0.8	MAAAALGQIWARKLLSVPWLLCGPRRY [compound 022]	⊚ (a peptide in which the β-hexosaminidase-secreting activity was confirmed at a concentration of 300 nM or less)
10	MAAVVALSLRRRLPATTLGGACLQASRG [compound 026]	● (a peptide in which the β-hexosaminidase-secreting activity was confirmed at a concentration of 10 μM or less)
7	MALLTAAARLLGTKNASCLVLAARHAS [compound 050]	● (a peptide in which the β-hexosaminidase-secreting activity was confirmed at a concentration of 10 μM or less)
2	MALRAKAEVCMAVPWLSLQRAQAL [compound 049]	● (a peptide in which the β-hexosaminidase-secreting activity was confirmed at a concentration of 10 μM or less)
1.9	MALVHKLLRGTYFLRKFSKPTSAL [compound 025]	⊚ (a peptide in which the β-hexosaminidase-secreting activity was confirmed at a concentration of 300 nM or less)
15	MASRLLRGAGTLAAQALRA [compound 004]	● (a peptide in which the β-hexosaminidase-secreting activity was confirmed at a concentration of 10 μM or less)
23	MASRLLRGAGTLAAQALRARGPSGAAAMRSM [compound 001]	● (a peptide in which the β-hexosaminidase-secreting activity was confirmed at a concentration of 10 μM or less)
